ChEMBL document CHEMBL3286146, “Prediction of anti-tumor chemical probes of a traditional Chinese medicine formula by HPLC fingerprinting combined with molecular docking” (Eur J Med Chem, 2014)

How the values were obtained:
[1] = Retention time of the compound by chromatography; type: physicochemical
[2] = Binding affinity to Bcl-xL (unknown origin); parameters: species or system Homo sapiens
[3] = biological target: Interleukin-2 (Homo sapiens, UniProt P60568); experiment: Binding affinity to IL-2 (unknown origin)
[4] = tested on: HepG2; experiment: Anticancer activity against human HepG2 cells assessed as cell viability after 48 hrs by MTT assay; type: functional, cell-based; conditions: HepG2, 48 h
[5] = tested on: HepG2; experiment: Anticancer activity against human HepG2 cells assessed as cell viability after 24 hrs by MTT assay; type: functional, cell-based; conditions: HepG2, 24 h
[6] = biological target: Tumor necrosis factor (Homo sapiens, UniProt P01375); experiment: Binding affinity to TNF-alpha (unknown origin)
Chain of Tumor necrosis factor (P01375 whole entry): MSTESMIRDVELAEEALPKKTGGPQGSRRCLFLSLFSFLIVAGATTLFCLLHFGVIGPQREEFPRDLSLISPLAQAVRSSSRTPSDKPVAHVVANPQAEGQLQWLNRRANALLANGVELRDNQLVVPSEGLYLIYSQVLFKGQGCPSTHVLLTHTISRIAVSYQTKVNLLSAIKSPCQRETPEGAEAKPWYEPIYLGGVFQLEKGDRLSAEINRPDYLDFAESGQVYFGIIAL

Chain of Interleukin-2 (P60568 whole entry): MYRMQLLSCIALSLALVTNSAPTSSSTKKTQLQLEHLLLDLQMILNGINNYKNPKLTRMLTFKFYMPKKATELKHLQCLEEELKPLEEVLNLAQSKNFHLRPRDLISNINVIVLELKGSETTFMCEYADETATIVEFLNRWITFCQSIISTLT

SMILES	Retention_time [1] [min]	Kd [2] [nM]	Kd [3] [nM]	IC50 [4] [nM]	IC50 [5] [nM]	Kd [6] [nM]
C[C@@H]1CC[C@@]2(OC1)O[C@H]1C[C@H]3[C@@H]4CC=C5C[C@@H](O[C@@H]6O[C@H](CO)[C@@H](O)[C@H](O[C@@H]7O[C@H](CO)[C@@H](O)[C@H](O)[C@H]7O)[C@H]6O)CC[C@]5(C)[C@H]4CC[C@]3(C)[C@H]1[C@@H]2C	16.9					
COc1ccc(-c2coc3cc(O[C@@H]4O[C@H](CO)[C@@H](O)[C@H](O)[C@H]4O)ccc3c2=O)cc1 [ONONIN]	39.3	170	120	40800		
COc1ccc(-c2coc3cc(O)ccc3c2=O)cc1 [FORMONONETIN]	48.5	7750	5470		60500	
CC(CC(=O)C[C@@H](C)[C@H]1CC(=O)[C@@]2(C)C3=C(C(=O)C[C@]12C)[C@@]1(C)CC[C@H](O)C(C)(C)[C@@H]1C[C@@H]3O)C(=O)O (stereo partly specified) [GANODERIC ACID B]	47.5			97400		8.81
O=C(NS(=O)(=O)c1ccc(NCCSc2ccccc2)c([N+](=O)[O-])c1)c1ccc(-c2ccc(F)cc2)cc1		810				
CC(CC(=O)C[C@@H](C)[C@H]1CC(=O)[C@@]2(C)C3=C(C(=O)[C@@H](O)[C@]12C)[C@@]1(C)CC[C@H](O)C(C)(C)[C@@H]1C[C@@H]3O)C(=O)O (stereo partly specified) [GANODERIC ACID G]	46.5			85600		
COc1cccc2c1C(=O)c1c(O)c3c(c(O)c1C2=O)C[C@@](O)(C(=O)CO)C[C@@H]3O[C@H]1C[C@H](N)[C@H](O)[C@H](C)O1 [DOXORUBICIN]					12500	
CC(=O)O[C@H]1CC[C@]2(C)[C@H]3CC=C4[C@@H]5CC(C)(C)CC[C@]5(C(=O)O)CC[C@@]4(C)[C@]3(C)CC[C@H]2C1(C)C [ACETYL OLEANOLIC ACID]	39.8			> 100000		
C/C=C1\[C@H](O[C@@H]2O[C@H](CO)[C@@H](O)[C@H](O)[C@H]2O)OC=C(C(=O)OC)[C@H]1CC(=O)OC[C@H]1O[C@@H](OCCc2ccc(O)cc2)[C@H](O)[C@@H](O)[C@@H]1O	13.5	2.4	2.59	> 100000		
CC(=O)O[C@@H]1C(=O)C2=C(C(=O)C[C@H]3C(C)(C)[C@@H](O)CC[C@]23C)[C@]2(C)C(=O)C[C@H]([C@H](C)CC(=O)CC(C)C(=O)O)[C@@]12C (stereo partly specified) [GANODERIC ACID H]	51.1			70300		2.45
CC(=O)O[C@@H]1C(=O)C2=C(C(=O)C[C@H]3C(C)(C)C(=O)CC[C@]23C)[C@]2(C)C(=O)C[C@H]([C@H](C)CC(=O)CC(C)C(=O)O)[C@@]12C (stereo partly specified) [GANODERIC ACID F]	54.4				19600	2.69
O=c1cc(-c2ccc(O)c(O)c2)oc2cc(O[C@@H]3O[C@H](CO)[C@@H](O)[C@H](O)[C@H]3O)cc(O)c12 [GALUTEOLIN]	31.2	9.89	20		20800	790
COc1ccc(-c2coc3cc(O[C@@H]4O[C@H](CO)[C@@H](O)[C@H](O)[C@H]4O)ccc3c2=O)cc1O	26.4	110	35.6	> 100000		1820
CC(C)(O)[C@@H]1CC[C@](C)([C@H]2[C@@H](O)C[C@@]3(C)[C@@H]4C[C@H](O[C@@H]5O[C@H](CO)[C@@H](O)[C@H](O)[C@H]5O)[C@H]5C(C)(C)[C@@H](O[C@@H]6OC[C@@H](O)[C@H](O)[C@H]6O)CC[C@@]56C[C@@]46CC[C@]23C)O1	28.6	0.126		> 100000		
C[C@H](CCC=C(CO)CO)[C@H]1CC[C@@]2(C)C3=CC[C@H]4C(C)(C)C(=O)CC[C@]4(C)C3=CC[C@]12C [GANODERIOL F]	10.3			20700		16.8
COc1ccc(-c2coc3cc(O)ccc3c2=O)cc1O [CALYCOSIN]	34.5			> 100000		
C[C@H](CC(=O)C[C@@H](C)[C@H]1C[C@H](O)[C@@]2(C)C3=C(C(=O)C[C@]12C)[C@@]1(C)CCC(=O)C(C)(C)[C@@H]1C[C@@H]3O)C(=O)O [GANODERIC ACID A]	50.4			38700		8.53
O=c1cc(-c2ccc(O)c(O)c2)oc2cc(O)cc(O)c12 [LUTEOLIN]	38.1				80800	
CC(CC(=O)C[C@@H](C)[C@H]1CC(=O)[C@@]2(C)C3=C(C(=O)C[C@]12C)[C@@]1(C)CCC(=O)C(C)(C)[C@@H]1C[C@@H]3O)C(=O)O (stereo partly specified) [GANODERIC ACID D]	45.7			22900		18.6
C[C@H](CC(=O)C[C@@H](C)[C@H]1C[C@H](O)[C@@]2(C)C3=C(C(=O)C[C@]12C)[C@@]1(C)CC[C@H](O)C(C)(C)[C@@H]1C[C@@H]3O)C(=O)O [GANODERIC ACID C2]	49.8			> 100000		8.39
O=c1cc(-c2ccc(O)cc2)oc2cc(O[C@@H]3O[C@H](CO)[C@@H](O)[C@H](O)[C@H]3O)cc(O)c12 [APIGETRIN]	28.6	76.2			90600	200
O=c1c(-c2ccc(O)cc2)coc2cc(O[C@@H]3O[C@H](CO)[C@@H](O)[C@H](O)[C@H]3O)ccc12 [DAIDZIN]	8.61		3380		61200	
C[C@@H]1CC[C@@]2(OC1)O[C@H]1C[C@H]3[C@@H]4CC=C5C[C@@H](O[C@@H]6O[C@H](CO)[C@@H](O)[C@H](O)[C@H]6O)CC[C@]5(C)[C@H]4CC[C@]3(C)[C@H]1[C@@H]2C [DISOGLUSIDE]			0.0289		30300	
